pIC50: −log10 of the molar value.
What follows are compounds tested against T1, NTCP (Homo sapiens, UniProt Q14973) (assay: [3H]-TCA uptake assay (NTCP inhibition)). Conditions: IC50, given as a range, marked * (asterisk not explained).
T1 sequence (Q14973 1-349): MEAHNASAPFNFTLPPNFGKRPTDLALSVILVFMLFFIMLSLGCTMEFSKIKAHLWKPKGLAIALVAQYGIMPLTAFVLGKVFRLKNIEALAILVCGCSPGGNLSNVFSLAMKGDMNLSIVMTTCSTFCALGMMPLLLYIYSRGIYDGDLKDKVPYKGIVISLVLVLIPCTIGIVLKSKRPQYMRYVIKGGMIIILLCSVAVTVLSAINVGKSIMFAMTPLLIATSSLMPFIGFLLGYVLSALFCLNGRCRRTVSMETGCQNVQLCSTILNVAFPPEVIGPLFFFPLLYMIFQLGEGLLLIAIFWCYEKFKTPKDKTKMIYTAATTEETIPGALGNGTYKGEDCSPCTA
Format: cell-based
Summary of the method: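 Read-out is liquid scintillation counting of Triton X-100 lysates after 15 min, 37° C uptake of 1 μM [3H]-taurocholate in Na+ Ringer's buffer (145 mM Na). Beforehand, PTH and HepG2-NTCP cells had 24 h in PMM for NTCP induction and 2 h of compound or DMSO treatment.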

Row | SMILES | pIC50
1 | CCC1NC(=O)C(C2OC(SCc3cccc(S(=O)(=O)NCC(C)C)c3)CC2C)N(C)C(=O)C(C(C)C)N(C)C(=O)C(CC(C)C)N(C)C(=O)C(CC(C)C)N(C)C(=O)C(C)NC(=O)C(C)NC(=O)C(CC(C)C)N(C)C(=O)C(C(C)C)NC(=O)C(CC(C)C)N(C)C(=O)CN(C)C1=O (centres unmarked) [Compound 76A-s] | 4.00 to 6.00
2 | CCC1NC(=O)C(C2OC(SCc3ccc(-n4cccn4)cc3)CC2C)N(C)C(=O)C(C(C)C)N(C)C(=O)C(CC(C)C)N(C)C(=O)C(CC(C)C)N(C)C(=O)C(C)NC(=O)C(C)NC(=O)C(CC(C)C)N(C)C(=O)C(C(C)C)NC(=O)C(CC(C)C)N(C)C(=O)CN(C)C1=O (centres unmarked) [Compound 77A-s] | 4.00 to 6.00
3 | CCC1NC(=O)C(C2OC(SC(C)c3ccccc3)CC2C)N(C)C(=O)C(C(C)C)N(C)C(=O)C(CC(C)C)N(C)C(=O)C(CC(C)C)N(C)C(=O)C(C)NC(=O)C(C)NC(=O)C(CC(C)C)N(C)C(=O)C(C(C)C)NC(=O)C(CC(C)C)N(C)C(=O)CN(C)C1=O (centres unmarked) [Compound 78A-s] | 4.00 to 6.00
4 | CCC1NC(=O)C(C2OC(SC(c3ccccc3)c3ccccc3)CC2C)N(C)C(=O)C(C(C)C)N(C)C(=O)C(CC(C)C)N(C)C(=O)C(CC(C)C)N(C)C(=O)C(C)NC(=O)C(C)NC(=O)C(CC(C)C)N(C)C(=O)C(C(C)C)NC(=O)C(CC(C)C)N(C)C(=O)CN(C)C1=O (centres unmarked) [Compound 80A-s] | 4.00 to 6.00
5 | CCC1NC(=O)C(C2OC(SCc3cccc(OC)c3)CC2C)N(C)C(=O)C(C(C)C)N(C)C(=O)C(CC(C)C)N(C)C(=O)C(CC(C)C)N(C)C(=O)C(C)NC(=O)C(C)NC(=O)C(CC(C)C)N(C)C(=O)C(C(C)C)NC(=O)C(CC(C)C)N(C)C(=O)CN(C)C1=O (centres unmarked) [Compound 81A-s] | 4.00 to 6.00
6 | CCC1NC(=O)C(C2OC(SCc3ccccc3OC)CC2C)N(C)C(=O)C(C(C)C)N(C)C(=O)C(CC(C)C)N(C)C(=O)C(CC(C)C)N(C)C(=O)C(C)NC(=O)C(C)NC(=O)C(CC(C)C)N(C)C(=O)C(C(C)C)NC(=O)C(CC(C)C)N(C)C(=O)CN(C)C1=O (centres unmarked) [Compound 82A-s] | 4.00 to 6.00
7 | CCC1NC(=O)C(C2OC(SCc3ccc(OC)cc3)CC2C)N(C)C(=O)C(C(C)C)N(C)C(=O)C(CC(C)C)N(C)C(=O)C(CC(C)C)N(C)C(=O)C(C)NC(=O)C(C)NC(=O)C(CC(C)C)N(C)C(=O)C(C(C)C)NC(=O)C(CC(C)C)N(C)C(=O)CN(C)C1=O (centres unmarked) [Compound 83A-s] | 4.00 to 6.00
8 | CCC1NC(=O)C(C2OC(SCc3ccccc3Cl)CC2C)N(C)C(=O)C(C(C)C)N(C)C(=O)C(CC(C)C)N(C)C(=O)C(CC(C)C)N(C)C(=O)C(C)NC(=O)C(C)NC(=O)C(CC(C)C)N(C)C(=O)C(C(C)C)NC(=O)C(CC(C)C)N(C)C(=O)CN(C)C1=O (centres unmarked) [Compound 84A-s] | 4.00 to 6.00
9 | CCC1NC(=O)C(C2OC(SCc3ccc(OCCN(C)C)cc3)CC2C)N(C)C(=O)C(C(C)C)N(C)C(=O)C(CC(C)C)N(C)C(=O)C(CC(C)C)N(C)C(=O)C(C)NC(=O)C(C)NC(=O)C(CC(C)C)N(C)C(=O)C(C(C)C)NC(=O)C(CC(C)C)N(C)C(=O)CN(C)C1=O (centres unmarked) [Compound 87A-s] | 4.00 to 6.00
10 | CCC1NC(=O)C(C2OC(SCc3cccc(Cl)c3OC)CC2C)N(C)C(=O)C(C(C)C)N(C)C(=O)C(CC(C)C)N(C)C(=O)C(CC(C)C)N(C)C(=O)C(C)NC(=O)C(C)NC(=O)C(CC(C)C)N(C)C(=O)C(C(C)C)NC(=O)C(CC(C)C)N(C)C(=O)CN(C)C1=O (centres unmarked) [Compound 88A-s] | 4.00 to 6.00
11 | CCC1NC(=O)C(C2OC(SCc3ccc(Cl)cc3Cl)CC2C)N(C)C(=O)C(C(C)C)N(C)C(=O)C(CC(C)C)N(C)C(=O)C(CC(C)C)N(C)C(=O)C(C)NC(=O)C(C)NC(=O)C(CC(C)C)N(C)C(=O)C(C(C)C)NC(=O)C(CC(C)C)N(C)C(=O)CN(C)C1=O (centres unmarked) [Compound 89A-s] | 4.00 to 6.00
12 | CCC1NC(=O)C(C2OC(SCc3c(Cl)cccc3Cl)CC2C)N(C)C(=O)C(C(C)C)N(C)C(=O)C(CC(C)C)N(C)C(=O)C(CC(C)C)N(C)C(=O)C(C)NC(=O)C(C)NC(=O)C(CC(C)C)N(C)C(=O)C(C(C)C)NC(=O)C(CC(C)C)N(C)C(=O)CN(C)C1=O (centres unmarked) [Compound 90A-s] | 4.00 to 6.00

Same assay, conditions: IC50, given as a range; assay not given

Row | SMILES | pIC50
13 | CCC1NC(=O)C(C2OC(OCc3ccc(-n4cccn4)cc3)CC2C)N(C)C(=O)C(C(C)C)N(C)C(=O)C(CC(C)C)N(C)C(=O)C(CC(C)C)N(C)C(=O)C(C)NC(=O)C(C)NC(=O)C(CC(C)C)N(C)C(=O)C(C(C)C)NC(=O)C(CC(C)C)N(C)C(=O)CN(C)C1=O [Compound 77A, [2-((2R,3R)-5-(4-(1H-pyrazol-1-yl)benzyloxy)-3-methyltetrahydrofuran-2-yl)-2-(methylamino)acetic acid]^1-cyclosporin A] | 5.00 to 6.00
14 | CCC1NC(=O)C(C2OC(SCc3cccc(Cl)c3)CC2C)N(C)C(=O)C(C(C)C)N(C)C(=O)C(CC(C)C)N(C)C(=O)C(CC(C)C)N(C)C(=O)C(C)NC(=O)C(C)NC(=O)C(CC(C)C)N(C)C(=O)C(C(C)C)NC(=O)C(CC(C)C)N(C)C(=O)CN(C)C1=O (centres unmarked) [Compound 85A-s] | 4.00 to 6.00
15 | CCC1NC(=O)C(C2OC(SCc3ccc(Cl)cc3)CC2C)N(C)C(=O)C(C(C)C)N(C)C(=O)C(CC(C)C)N(C)C(=O)C(CC(C)C)N(C)C(=O)C(C)NC(=O)C(C)NC(=O)C(CC(C)C)N(C)C(=O)C(C(C)C)NC(=O)C(CC(C)C)N(C)C(=O)CN(C)C1=O (centres unmarked) [Compound 86A-s] | 4.00 to 6.00
16 | CCC1NC(=O)C(C2OC(OCc3ccc(OCCN(C)C)cc3)CC2C)N(C)C(=O)C(C(C)C)N(C)C(=O)C(CC(C)C)N(C)C(=O)C(CC(C)C)N(C)C(=O)C(C)NC(=O)C(C)NC(=O)C(CC(C)C)N(C)C(=O)C(C(C)C)NC(=O)C(CC(C)C)N(C)C(=O)CN(C)C1=O [Compound 87A, [2-((2R,3R)-5-(4-(2-(dimethylamino)ethoxy)benzyloxy)-3-methyltetrahydrofuran-2-yl)-2-(methylamino)acetic acid]^1-cyclosporin A] | 5.00 to 6.00

Same assay, conditions: given as a range; assay not given

Row | SMILES | IC50
17 | CCC1NC(=O)C(C2OC(OC(c3ccccc3)c3ccccc3)CC2C)N(C)C(=O)C(C(C)C)N(C)C(=O)C(CC(C)C)N(C)C(=O)C(CC(C)C)N(C)C(=O)C(C)NC(=O)C(C)NC(=O)C(CC(C)C)N(C)C(=O)C(C(C)C)NC(=O)C(CC(C)C)N(C)C(=O)CN(C)C1=O [Compound 80A, [2-((2R,3R)-3-methyl-5-(benzhydryloxy)tetrahydrofuran-2-yl)-2-(methylamino)acetic acid]^1-cyclosporin A] | 1 to 1000 nM
18 | CCC1NC(=O)C(C2OC(OCc3cccc(OC)c3)CC2C)N(C)C(=O)C(C(C)C)N(C)C(=O)C(CC(C)C)N(C)C(=O)C(CC(C)C)N(C)C(=O)C(C)NC(=O)C(C)NC(=O)C(CC(C)C)N(C)C(=O)C(C(C)C)NC(=O)C(CC(C)C)N(C)C(=O)CN(C)C1=O [Compound 81A, [2-((2R,3R)-5-(3-methoxybenzyloxy)-3-methyltetrahydrofuran-2-yl)-2-(methylamino)acetic acid]^1-cyclosporin A] | 1 to 1000 nM
19 | CCC1NC(=O)C(C2OC(OCc3ccc(OC)cc3)CC2C)N(C)C(=O)C(C(C)C)N(C)C(=O)C(CC(C)C)N(C)C(=O)C(CC(C)C)N(C)C(=O)C(C)NC(=O)C(C)NC(=O)C(CC(C)C)N(C)C(=O)C(C(C)C)NC(=O)C(CC(C)C)N(C)C(=O)CN(C)C1=O [Compound 83A, [2-((2R,3R)-5-(4-methoxybenzyloxy)-3-methyltetrahydrofuran-2-yl)-2-(methylamino)acetic acid]^1-cyclosporin A] | 1 to 1000 nM
20 | CCC1NC(=O)C(C2OC(OCc3ccccc3Cl)CC2C)N(C)C(=O)C(C(C)C)N(C)C(=O)C(CC(C)C)N(C)C(=O)C(CC(C)C)N(C)C(=O)C(C)NC(=O)C(C)NC(=O)C(CC(C)C)N(C)C(=O)C(C(C)C)NC(=O)C(CC(C)C)N(C)C(=O)CN(C)C1=O [Compound 84A, [2-((2R,3R)-5-(2-chlorobenzyloxy)-3-methyltetrahydrofuran-2-yl)-2-(methylamino)acetic acid]^1-cyclosporin A] | 1 to 1000 nM
21 | CCC1NC(=O)C(C2OC(OCc3ccc(Cl)cc3)CC2C)N(C)C(=O)C(C(C)C)N(C)C(=O)C(CC(C)C)N(C)C(=O)C(CC(C)C)N(C)C(=O)C(C)NC(=O)C(C)NC(=O)C(CC(C)C)N(C)C(=O)C(C(C)C)NC(=O)C(CC(C)C)N(C)C(=O)CN(C)C1=O [Compound 86A, [2-((2R,3R)-5-(4-chlorobenzyloxy)-3-methyltetrahydrofuran-2-yl)-2-(methylamino)acetic acid]^1-cyclosporin A] | 1 to 1000 nM

Same assay, conditions: given as a range; assay not given; read-out: IC50

Row | SMILES | pIC50
22 | CC[C@@H]1NC(=O)[C@H]([C@@H]2OC(OCc3cccc(Cl)c3)C[C@H]2C)N(C)C(=O)[C@H](C(C)C)N(C)C(=O)[C@H](CC(C)C)N(C)C(=O)[C@H](CC(C)C)N(C)C(=O)[C@@H](C)NC(=O)[C@H](C)NC(=O)[C@H](CC(C)C)N(C)C(=O)[C@H](C(C)C)NC(=O)[C@H](CC(C)C)N(C)C(=O)CN(C)C1=O (stereo partly drawn) [Compound 85A, [2-((2R,3R)-5-(3-chlorobenzyloxy)-3-methyltetrahydrofuran-2-yl)-2-(methylamino)acetic acid]^1-cyclosporin A] | 6.00 to 9.00
23 | CC[C@@H]1NC(=O)[C@H]([C@@H]2OC(OCc3cc(Cl)cc(Cl)c3)C[C@H]2C)N(C)C(=O)[C@H](C(C)C)N(C)C(=O)[C@H](CC(C)C)N(C)C(=O)[C@H](CC(C)C)N(C)C(=O)[C@@H](C)NC(=O)[C@H](C)NC(=O)[C@H](CC(C)C)N(C)C(=O)[C@H](C(C)C)NC(=O)[C@H](CC(C)C)N(C)C(=O)CN(C)C1=O (stereo partly drawn) [Compound 91A, [2-((2R,3R)-5-(3,5-dichlorobenzyloxy)-3-methyltetrahydrofuran-2-yl)-2-(methylamino)acetic acid]^1-cyclosporin A] | 6.00 to 9.00

— US10961231B2, “NTCP inhibitors” (National Institute of Biological Sciences, Beijing, priority 2018, dated 2021)
